According to patent publication US8609708B2 (Human BioMolecular Research Institute, priority 2003, dated 2013):
Read-outs that look alike come from different tables or passages of the source.

What was measured:
CYP2E1 = CYP2E1 (Homo sapiens (Human), UniProt P05181); assay: CYP2E1 Vivid blue substrate O-dealkylation inhibition; assay type: biochemical
CYP2D6 = CYP2D6 (Homo sapiens (Human), UniProt P10635); assay: CYP2D6 Vivid blue substrate O-dealkylation inhibition; assay type: biochemical
P450 2A6dH [1] = target: T1, P450 2A6dH (Homo sapiens (Human), UniProt P11509, INS494HHHH); assay: Difference spectra of test compounds with N-terminal truncated CYP2A6; conditions: difference spectrum with truncated CYP2A6
T1 sequence (P11509 other isoform, or with tags, fused parts or gaps 1-28 replaced by MAKKTS/ins HHHH behind 494): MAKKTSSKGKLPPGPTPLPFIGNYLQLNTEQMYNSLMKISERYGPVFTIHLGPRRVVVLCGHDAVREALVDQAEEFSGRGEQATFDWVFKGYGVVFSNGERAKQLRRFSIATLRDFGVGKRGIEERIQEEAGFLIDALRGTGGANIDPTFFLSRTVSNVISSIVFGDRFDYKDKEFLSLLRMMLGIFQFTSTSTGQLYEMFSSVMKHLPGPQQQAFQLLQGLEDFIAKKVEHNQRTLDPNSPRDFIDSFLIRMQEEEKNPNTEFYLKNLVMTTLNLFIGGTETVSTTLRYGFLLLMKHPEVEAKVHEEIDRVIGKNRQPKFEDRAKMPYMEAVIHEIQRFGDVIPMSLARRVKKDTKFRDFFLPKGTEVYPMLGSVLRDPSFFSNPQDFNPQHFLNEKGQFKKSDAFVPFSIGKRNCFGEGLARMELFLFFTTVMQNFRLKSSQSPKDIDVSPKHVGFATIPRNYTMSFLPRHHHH
Experimental: (§3) Subsequently, test compound (in 100% ethanol, 10 μM) was added to both the cuvettes. The maximal ethanol concentration used was 2%. The difference spectra were obtained after the system reached equilibrium (3 min). All spectra were recorded at 25° C.

[2] = target: CYP2E1 relative to CYP2A6 (Homo sapiens (Human), UniProt P05181); assay: CYP2E1 Vivid blue substrate O-dealkylation inhibition; assay type: biochemical; conditions: human, pH 8
Sequence of CYP2E1 relative to CYP2A6 (P05181 whole entry): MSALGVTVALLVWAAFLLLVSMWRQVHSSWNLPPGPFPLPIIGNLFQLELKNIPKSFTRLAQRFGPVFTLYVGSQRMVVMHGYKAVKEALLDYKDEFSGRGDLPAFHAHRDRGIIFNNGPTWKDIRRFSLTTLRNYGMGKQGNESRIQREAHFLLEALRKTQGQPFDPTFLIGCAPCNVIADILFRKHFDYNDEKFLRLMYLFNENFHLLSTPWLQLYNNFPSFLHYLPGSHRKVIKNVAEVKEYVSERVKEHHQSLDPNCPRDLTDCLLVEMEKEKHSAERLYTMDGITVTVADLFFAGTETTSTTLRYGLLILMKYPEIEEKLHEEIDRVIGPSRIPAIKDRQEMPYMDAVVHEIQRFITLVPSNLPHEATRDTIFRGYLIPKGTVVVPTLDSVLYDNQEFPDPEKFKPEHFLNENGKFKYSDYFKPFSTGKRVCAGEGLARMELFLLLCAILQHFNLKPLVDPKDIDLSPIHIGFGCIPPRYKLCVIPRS

P450 2A6dH [3] = target: T1, P450 2A6dH
Experimental: as §3

[4] = target: CYP2C9 relative to CYP2A6 (Homo sapiens (Human), UniProt P11712); assay: CYP2C9 Vivid blue substrate O-dealkylation inhibition; assay type: biochemical; conditions: human, recombinant CYP2C9 BACULOSOMES, pH 8, probe Vivid blue substrate (10 μM), O-dealkylation; read-out: 2C9/2A6 selectivity ratio (IC50 CYPX/IC50 CYP2A6)
[5] = target: CYP2B6 relative to CYP2A6 (Homo sapiens (Human), UniProt P20813); assay: CYP2B6 Vivid blue substrate O-dealkylation inhibition; assay type: biochemical; conditions: human, pH 8
Sequence of CYP2B6 relative to CYP2A6 (P20813 whole entry): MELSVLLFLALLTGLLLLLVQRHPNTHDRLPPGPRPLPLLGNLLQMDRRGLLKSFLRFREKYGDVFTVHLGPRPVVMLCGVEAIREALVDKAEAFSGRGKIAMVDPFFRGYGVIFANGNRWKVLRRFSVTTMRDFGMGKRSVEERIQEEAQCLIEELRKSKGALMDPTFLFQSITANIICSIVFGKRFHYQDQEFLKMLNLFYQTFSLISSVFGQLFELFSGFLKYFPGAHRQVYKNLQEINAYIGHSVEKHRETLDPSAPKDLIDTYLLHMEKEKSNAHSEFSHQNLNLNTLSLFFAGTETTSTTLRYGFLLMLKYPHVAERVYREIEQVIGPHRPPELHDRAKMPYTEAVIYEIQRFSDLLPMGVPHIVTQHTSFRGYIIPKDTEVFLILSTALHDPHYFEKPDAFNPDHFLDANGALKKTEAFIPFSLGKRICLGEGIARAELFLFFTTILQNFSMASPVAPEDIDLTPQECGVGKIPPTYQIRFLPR

[6] = Mouse liver microsome stability assay; conditions: mouse liver microsomes
Experimental: The residue was reconstituted in methanol (200 μL), centrifuged at 13,000 rpm for 5 min and the supernatant was analyzed by high-performance liquid chromatography with an Axxi-chrom (straight-phase) silica column (4.6 mm×250 mm, 5 μm) or with a Supelco (reverse-phase) HS F5 pentafluorophenyl column (4.6 mm×250 mm, 5 μm).

[7] = target: CYP3A4 relative to CYP2A6 (Homo sapiens (Human), UniProt P08684); assay: in vitro; conditions: human; for selectivity ratio at 30 min: pH 7.5
Sequence of CYP3A4 relative to CYP2A6 (P08684 whole entry): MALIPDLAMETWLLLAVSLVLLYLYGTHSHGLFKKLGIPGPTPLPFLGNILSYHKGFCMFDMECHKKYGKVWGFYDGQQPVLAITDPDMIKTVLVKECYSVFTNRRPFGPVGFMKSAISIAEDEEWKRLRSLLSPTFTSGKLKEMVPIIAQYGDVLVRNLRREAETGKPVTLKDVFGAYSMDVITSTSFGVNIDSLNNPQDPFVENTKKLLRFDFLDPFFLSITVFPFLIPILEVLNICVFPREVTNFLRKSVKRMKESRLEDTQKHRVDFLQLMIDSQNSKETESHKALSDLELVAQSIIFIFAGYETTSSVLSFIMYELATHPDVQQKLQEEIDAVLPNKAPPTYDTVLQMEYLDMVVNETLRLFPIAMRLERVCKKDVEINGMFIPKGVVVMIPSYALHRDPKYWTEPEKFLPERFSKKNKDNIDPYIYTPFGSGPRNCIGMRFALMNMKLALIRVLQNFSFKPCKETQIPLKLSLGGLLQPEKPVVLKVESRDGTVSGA
Experimental: (§1) To gain insight into the selectivity of the synthetic compounds, nicotine, nicotine related alkaloids and nicotine metabolites for inhibition of other CYPs, we examined the major CYP present in human liver (i.e., CYP 3A4). […] A typical incubation mixture ([…] ), 0.5 mM NADP^+, 2.0 mM G6P, 1 U of G6P dehydrogenase, […] inhibitor was added last as to minimize interaction with the protein. After mixing on ice, the reaction was initiated by the addition of substrate and incubated at 37° C. with shaking in air. Organic extracts were injected onto a Hitachi L-7100 system equipped with a Hitachi L-7400 UV detector. Separations were done with an Altex Ultrasphere ODS (4.6 mm×250 mm, 5 μm) column. The analytes were eluted with an isocratic solvent system consisting of water/acetonitrile/methanol (30:10:60, v/v/v) at a flow rate of 1.0 mL/min. […] Quantification of substrate and metabolite was determined from peak areas of the chromatogram and comparison with standard curves. IC50 values were determined as described below.
(§2) To measure CYP3A4 activity, testosterone 6-hydroxylation was determined.

CYP3A4 = CYP3A4 (Homo sapiens (Human), UniProt P08684); assay: in vitro
Sequence of CYP3A4 (P08684 whole entry): as above
Experimental: as §1, §2

[8] = target: CYP2D6 relative to CYP2A6 (Homo sapiens (Human), UniProt P10635); assay: CYP2D6 Vivid blue substrate O-dealkylation inhibition; assay type: biochemical; conditions: human, recombinant CYP2D6 BACULOSOMES, pH 8, probe Vivid blue substrate (10 μM), O-dealkylation; read-out: 2D6/2A6 selectivity ratio (IC50 CYPX/IC50 CYP2A6)
Sequence of CYP2D6 relative to CYP2A6 (P10635 whole entry): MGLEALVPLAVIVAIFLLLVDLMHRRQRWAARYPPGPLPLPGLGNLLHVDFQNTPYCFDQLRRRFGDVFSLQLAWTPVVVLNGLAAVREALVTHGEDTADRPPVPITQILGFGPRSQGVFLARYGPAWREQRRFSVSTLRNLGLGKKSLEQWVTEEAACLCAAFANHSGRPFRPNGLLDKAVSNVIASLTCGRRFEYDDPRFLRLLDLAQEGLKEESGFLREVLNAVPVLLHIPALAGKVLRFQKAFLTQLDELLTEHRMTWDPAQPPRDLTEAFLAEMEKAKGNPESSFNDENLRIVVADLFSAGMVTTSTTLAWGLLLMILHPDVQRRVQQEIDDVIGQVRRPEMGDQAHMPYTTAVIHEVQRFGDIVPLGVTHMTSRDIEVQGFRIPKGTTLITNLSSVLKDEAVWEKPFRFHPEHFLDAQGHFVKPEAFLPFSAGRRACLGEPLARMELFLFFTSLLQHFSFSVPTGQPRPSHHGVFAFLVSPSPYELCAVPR

[9] = target: CYP2C19 relative to CYP2A6 (Homo sapiens (Human), UniProt P33261); assay: CYP2C19 Vivid blue substrate O-dealkylation inhibition; assay type: biochemical; conditions: human, recombinant CYP2C19 BACULOSOMES, pH 8, probe Vivid blue substrate (10 μM), O-dealkylation; read-out: 2C19/2A6 selectivity ratio (IC50 CYPX/IC50 CYP2A6)
Sequence of CYP2C19 relative to CYP2A6 (P33261 whole entry): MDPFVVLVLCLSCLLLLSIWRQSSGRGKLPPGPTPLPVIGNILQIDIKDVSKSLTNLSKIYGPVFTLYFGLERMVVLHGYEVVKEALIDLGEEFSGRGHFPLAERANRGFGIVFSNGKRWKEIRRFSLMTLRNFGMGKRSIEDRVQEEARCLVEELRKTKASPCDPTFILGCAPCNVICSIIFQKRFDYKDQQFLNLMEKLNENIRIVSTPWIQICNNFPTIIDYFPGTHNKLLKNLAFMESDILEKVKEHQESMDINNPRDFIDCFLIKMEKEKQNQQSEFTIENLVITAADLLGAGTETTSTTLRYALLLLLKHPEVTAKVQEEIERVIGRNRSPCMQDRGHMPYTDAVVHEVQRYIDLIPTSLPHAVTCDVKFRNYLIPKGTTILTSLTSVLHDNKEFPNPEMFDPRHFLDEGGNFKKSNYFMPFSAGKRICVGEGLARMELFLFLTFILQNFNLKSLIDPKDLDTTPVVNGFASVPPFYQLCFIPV

human CYP2A6 [10] = target: T2, human CYP2A6 (Homo sapiens (Human), UniProt P11509)
T2 sequence (P11509 whole entry): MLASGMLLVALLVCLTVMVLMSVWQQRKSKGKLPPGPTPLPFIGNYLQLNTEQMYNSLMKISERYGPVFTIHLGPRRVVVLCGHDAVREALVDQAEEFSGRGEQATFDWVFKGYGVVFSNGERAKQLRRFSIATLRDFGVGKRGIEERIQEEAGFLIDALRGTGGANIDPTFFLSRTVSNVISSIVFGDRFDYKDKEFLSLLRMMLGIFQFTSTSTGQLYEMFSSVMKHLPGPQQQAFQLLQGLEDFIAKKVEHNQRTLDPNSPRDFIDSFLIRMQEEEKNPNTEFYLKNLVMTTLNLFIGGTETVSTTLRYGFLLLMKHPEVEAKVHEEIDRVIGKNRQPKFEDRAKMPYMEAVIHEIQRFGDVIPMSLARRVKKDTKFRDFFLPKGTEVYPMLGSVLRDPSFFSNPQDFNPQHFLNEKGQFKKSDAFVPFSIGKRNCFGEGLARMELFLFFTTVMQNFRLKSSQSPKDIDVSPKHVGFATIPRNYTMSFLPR

CYP2C9 = CYP2C9 (Homo sapiens (Human), UniProt P11712); assay: CYP2C9 Vivid blue substrate O-dealkylation inhibition; assay type: biochemical
Sequence of CYP2C9 (P11712 whole entry): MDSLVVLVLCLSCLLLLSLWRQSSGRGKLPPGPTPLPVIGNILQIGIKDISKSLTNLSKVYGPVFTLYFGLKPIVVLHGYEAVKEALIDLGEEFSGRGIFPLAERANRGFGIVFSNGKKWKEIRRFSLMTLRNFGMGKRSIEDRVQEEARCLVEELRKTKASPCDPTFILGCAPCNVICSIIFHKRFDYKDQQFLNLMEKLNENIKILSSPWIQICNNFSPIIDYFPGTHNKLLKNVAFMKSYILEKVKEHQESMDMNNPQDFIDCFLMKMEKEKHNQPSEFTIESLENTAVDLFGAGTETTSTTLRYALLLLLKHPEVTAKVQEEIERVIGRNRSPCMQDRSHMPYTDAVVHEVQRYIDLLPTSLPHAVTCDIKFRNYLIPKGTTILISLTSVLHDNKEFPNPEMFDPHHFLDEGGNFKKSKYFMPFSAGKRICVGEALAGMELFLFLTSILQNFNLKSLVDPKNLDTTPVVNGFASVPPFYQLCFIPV

CYP2B6 = CYP2B6 (Homo sapiens (Human), UniProt P20813); assay: CYP2B6 Vivid blue substrate O-dealkylation inhibition; assay type: biochemical
Sequence of CYP2B6 (P20813 whole entry): as the sequence (P20813 whole entry) above

CYP2C19 = CYP2C19 (Homo sapiens (Human), UniProt P33261); assay: CYP2C19 Vivid blue substrate O-dealkylation inhibition; assay type: biochemical
Sequence of CYP2C19 (P33261 whole entry): as the sequence (P33261 whole entry) above

human CYP2A6 [11] = target: T2, human CYP2A6; assay: CYP2A6 mediated coumarin 7-hydroxylation inhibition; conditions: read-out: CYP2A6 IC50; coumarin 7-hydroxylation

Sequence of CYP2D6 (P10635 whole entry, the tested form may be a part): as the sequence (P10635 whole entry) above
Sequence of CYP2E1 (P05181 whole entry): as the sequence (P05181 whole entry) above

NCc1ccc(-c2cccnc2)s1 [Compound 38a, (5-(Pyridin-3-yl)thiophen-2-yl)methanamine]
IC50 (CYP2E1; insect cell microsomes expressing CYP2E1, 0.2M potassium phosphate buffer, mean of at least 3 determinations ± SD, read-out: IC50 ± SD 2E1): 40.2 ± 18.1 µM
IC50 (CYP2D6; insect cell microsomes expressing CYP2D6, 0.2M potassium phosphate buffer, mean of at least 3 determinations ± SD, read-out: IC50 ± SD 2D6): 168 ± 16 µM
binding type (P450 2A6dH [1]): type 2

Cn1cnc(-c2cccnc2)c1 [Compound 5]
selectivity ratio at 40 min [2]: 5
binding type (P450 2A6dH [3]): Type II
λmax (P450 2A6dH [3]): 429 nm
λmin (P450 2A6dH [3]): 409 nm
selectivity ratio at 40 min [4]: 106
selectivity ratio at 40 min [5]: 195
half-life at 40 μM ([6]; mouse, pH 7.4): 481 min
selectivity ratio at 30 min [7]: 349
IC50 (CYP3A4): 262 ± 63 µM
selectivity ratio at 40 min [8]: 272
selectivity ratio at 40 min [9]: 163
IC50 (human CYP2A6 [10]): 750 ± 100 nM
IC50 (human CYP2A6 [10]; human, pH 7.5): 748 ± 100 nM

CC(=O)c1ccc(-c2cccnc2)s1 [Compound 36]
Selectivity ratio (IC50 CYPX/IC50 CYP2A6) 2E1/2A6 (CYP2E1; human CYP2E1 versus human CYP2A6): 3
Selectivity ratio (IC50 CYPX/IC50 CYP2A6) 2C9/2A6 (CYP2C9; human CYP2C9 versus human CYP2A6): 159
Selectivity ratio (IC50 CYPX/IC50 CYP2A6) 2B6/2A6 (CYP2B6; human CYP2B6 versus human CYP2A6): 153
selectivity ratio at 30 min [7]: 3
Selectivity ratio (IC50 CYPX/IC50 CYP2A6) 2D6/2A6 (CYP2D6; human CYP2D6 versus human CYP2A6): 136
Selectivity ratio (IC50 CYPX/IC50 CYP2A6) 2C19/2A6 (CYP2C19; human CYP2C19 versus human CYP2A6): 27
IC50 (human CYP2A6 [10]; human, pH 7.5): 8610 ± 1330 nM
fold decrease of CYP2A6 inhibitor potency (human CYP2A6 [10]; human, pH 7.5): 12 fold

CN(C)Cc1ccc(-c2cccnc2)o1 [Compound 2c]
IC50 (CYP2E1; Table 4, unit inferred, read-out: 2E1 IC50 ± SD): > 400 µM
IC50 (CYP2C9; Table 4, unit inferred, read-out: 2C9 IC50 ± SD): 222 ± 16 µM
IC50 (CYP2B6; Table 4, unit inferred, read-out: 2B6 IC50 ± SD): > 400 µM
MLM t1/2 ([6]; 40 μM test compound): Stable^a
IC50 (CYP3A4): 294 ± 25 µM
IC50 (CYP2D6; Table 4, unit inferred, read-out: 2D6 IC50 ± SD): 253 ± 35 µM
IC50 (CYP2C19; Table 4, unit inferred, read-out: 2C19 IC50 ± SD): 157 ± 10 µM
binding type (P450 2A6dH [1]): Type II

Cc1ccc(-c2cccnc2)nc1 [Compound 46]
IC50 (human CYP2A6 [11]): 16.5 ± 3.8 µM
selectivity ratio ([7]; pH 7.5, Selectivity Ratio: IC50 (Inhibition of CYP3A4)/IC50 (Inhibition of CYP2A6), Table 1): 5
IC50 (CYP3A4; read-out: CYP3A4 IC50, testosterone 6-hydroxylation): 84.2 ± 19.5 µM
